{"source": "patent US6555712B2", "about": "“Process for the preparation of diorganotrisulfide” (Indian Institute of Technology, priority 2001, dated 2003)", "origin": "cited, not measured here", "key": {"Entamoeba histolytica": {"system": "Entamoeba histolytica", "settings": "in vitro"}, "[1]": {"system": "MASEF, Mastomys natalensis embryo fibroblast", "settings": "MASEF cell line, in vitro"}, "[2]": {"system": "human neoplastic (A549) lung cells", "settings": "10 micromolar"}, "[3]": {"system": "canine mammary tumor cells (CMT-13)"}, "[4]": {"system": "whole blood platelet-aggregation", "settings": "DATS present in the steam-distilled component of garlic extract"}, "[5]": {"system": "Trypanosoma brucei brucei, T.b. rhodesiense, T.b. gambiense, T. evansi, T. congolense and T. equiperdum", "settings": "in vitro; one range for six Trypanosoma species"}, "[6]": {"system": "Tribolium castaneum (Herbst)", "parameters": "egg hatching: dose or concentration left out as unconfirmed"}, "[7]": {"system": "tumor derived immunosuppressive factors produced by S180 cells and Ehrlich ascitic cancer cells"}, "[8]": {"system": "cultured human neoplastic (A549) lung cells", "settings": "1 microM for 24 hours"}, "[9]": {"system": "HEFL-12, human embryo fibroblast", "settings": "HEFL-12 cell line, in vitro"}, "[10]": {"system": "Sitophilus zeamais (Motschulsky)"}, "macrophages [11]": {"system": "macrophages"}, "[12]": {"system": "intracellular Ca2+ in A549 cells"}, "[13]": {"system": "human nonneoplastic (MRC-5) lung cells", "settings": "10 microM"}, "macrophages [14]": {"system": "macrophages", "settings": "1-100 micrograms/ml"}, "Giardia Lamblia": {"system": "Giardia Lamblia", "settings": "in vitro"}}, "note": "Where two headings read alike, the source gives them in different places.", "data": [{"compound": "C=CCSSSCC=C", "note": "[DATS, Diallyltrisulfide]", "values": [{"measurement": "IC50 (concentration which inhibits metabolism or growth of parasites by 50%)", "setting": "Entamoeba histolytica", "value": 59, "unit": "micrograms/ml"}, {"measurement": "maximum tolerated concentration", "setting": "[1]", "value": 25, "unit": "micrograms/ml"}, {"measurement": "reduction of A549 growth", "setting": "[2]", "value": 47, "unit": "%"}, {"measurement": "growth of canine mammary tumor cells (CMT-13)", "setting": "[3]", "value": "markedly inhibits"}, {"measurement": "Inhibition of whole blood platelet-aggregation", "setting": "[4]", "value": "high"}, {"measurement": "IC50 (concentration which inhibits metabolism or growth of parasites by 50%)", "setting": "[5]", "value": "0.8-5.5 micrograms/ml"}, {"measurement": "egg hatching", "setting": "[6]; T. castaneum", "value": "totally suppressed"}, {"measurement": "feeding deterrence", "setting": "[6]; T. castaneum adults, 0.75 mg/g food", "value": 85, "unit": "%"}, {"measurement": "contact and fumigant toxicities", "setting": "[6]; T. castaneum adults, comparison with methylallyl disulfide", "value": "greater than that of methylallyl disulfide"}, {"measurement": "feeding deterrence index", "setting": "[6]; T. castaneum larvae, 2.98 mg/g food", "value": 51, "unit": "%"}, {"measurement": "larval and adult emergence", "setting": "[6]; T. castaneum, at 0.08 mg/cm2", "value": "totally suppressed"}, {"measurement": "nutritional indices", "setting": "[6]; all of the insects tested (T. castaneum)", "value": "significantly reduced"}, {"measurement": "effect on activation of T lymphocytes by Con A", "setting": "T lymphocytes; 3.125-12.5 micrograms/ml", "value": "augmented"}, {"measurement": "effect on T cell activation", "setting": "T lymphocytes; high concentration (50 micrograms/ml)", "value": "inhibitory effect"}, {"measurement": "inhibition by tumor derived immunosuppressive factors of the activation of T cells (inhibitory rate)", "setting": "[7]", "value": "reduce the inhibitory rate significantly"}, {"measurement": "apoptosis, as indicated by increased DNA fragmentation", "setting": "[8]", "value": "significantly induced apoptosis"}, {"measurement": "maximum tolerated concentration", "setting": "[9]", "value": 25, "unit": "micrograms/ml"}, {"measurement": "feeding deterrence index", "setting": "[10]; S. zeamais adults, 2.98 mg/g food", "value": 27, "unit": "%"}, {"measurement": "contact and fumigant toxicities", "setting": "[10]; S. zeamais adults, comparison with methylallyl disulfide", "value": "greater than that of methylallyl disulfide"}, {"measurement": "nutritional indices", "setting": "[10]; all of the insects tested (S. zeamais)", "value": "significantly reduced"}, {"measurement": "production of hydrogen peroxide (H2O2) by macrophages", "setting": "macrophages [11]", "value": "enhance"}, {"measurement": "intracellular Ca2+ in A549 cells", "setting": "[12]; 10 microM, during the first four hours after treatment", "value": "marked and progressive increase"}, {"measurement": "intracellular Ca2+ in A549 cells after refeeding the medium without DATS", "setting": "[12]; after refeeding medium without DATS", "value": "returned to near control levels within one hour"}, {"measurement": "MRC-5 cell growth", "setting": "[13]", "value": "did not alter"}, {"measurement": "production of NO by macrophages", "setting": "macrophages [14]", "value": "can inhibit"}, {"measurement": "IC50 (concentration which inhibits metabolism or growth of parasites by 50%)", "setting": "Giardia Lamblia", "value": 14, "unit": "micrograms/ml"}]}, {"compound": "C=CCSSC", "note": "[Methylallyl disulfide, methylallyl disulfide, reference compound]", "values": [{"measurement": "growth rate, food consumption, and food utilization of adults", "setting": "[6]; T. castaneum adults", "value": "significantly decreased"}, {"measurement": "feeding deterrence index", "setting": "[6]; T. castaneum adults, 1.52 mg/g food", "value": 44, "unit": "%"}, {"measurement": "nutritional indices of T. castaneum larvae", "setting": "[6]; T. castaneum larvae", "value": "did not affect"}, {"measurement": "growth rate, food consumption, and food utilization of adults", "setting": "[10]; S. zeamais adults", "value": "significantly decreased"}, {"measurement": "feeding deterrence index", "setting": "[10]; S. zeamais adults, 6.08 mg/g food", "value": 44, "unit": "%"}]}]}
